# Laboratory results as given in patent US20140275090A1, “BILE ACID RECYCLING INHIBITORS FOR TREATMENT OF PRIMARY SCLEROSING CHOLANGITIS AND INFLAMMATORY BOWEL DISEASE” (Lumena Pharmaceuticals, Inc., priority 2013, published 2014).
# Columns and labels:
# serum bile acids [1] = assay: Inhibition of the postprandial rise in SBA (AUC 0-240 min) in dogs, LUM001 compared to cholestyramine; type: in vivo, dog
# Protocol: LUM001 was dissolved in 0.2% Tween 80 at concentrations that required the administration of 0.2 ml dosing solution/kg of body weight at each dose tested. Cholestyramine was suspended in water at concentrations that required the administration of 2.5 ml/kg (500 mg/kg) and 1 ml/kg (200 mg/kg). The appropriate volume of solution formulation for each animal was placed into a gelatin capsule, Torpac Inc., size 13, Batch 594, East Hanover, N.J. and administered per os. Test compounds were administered as single oral doses to groups of dogs, 3 to 9 dogs per group at varying dosages. LUM001 was given at 0, 0.02, 0.05, 0.2, 0.6, 2, 5 or 15 mg/kg. Cholestyramine was administered at 200 or 500 mg/kg. […] No dog received any one compound dosage more than once. SBA was measured by an enzymatic assay. SBA values are expressed as μg of total bile acids/ml of serum.
# serum bile acids [2] = assay: Fasting and post-prandial peak serum bile acids in children and adolescents after eight days of LUM001; type: in vivo, human; conditions: LUM001 treated patients
# Protocol: The efficacy of LUM001 was determined by measuring total serum bile acids after eight days of dosing in children and adolescents under the age of eighteen. Thirty minutes before the next drug administration, at approximately 8 am in the morning, serum bile acid levels were measured. The child had refrained from food for 12 hours prior to this sample thus providing a fasted level of serum bile acid. After breakfast, serum bile acids were measured for up to the next 4 hours (8 am to noon) and the peak serum bile acid concentration noted.
# [3] = Toxicokinetics of LUM001 free form, 13-week oral gavage toxicity study in rats; type: in vivo; conditions: plasma; rat, after IV administration of 3 mg/kg; read-out: AUC(0-24 h)
# [4] = Toxicokinetics of LUM001 free form, 13-week oral capsule toxicity study in dogs; type: in vivo, Beagle dog; conditions: 13-wk dog capsule, 20 mg/kg
# Protocol: Six- to seven-month old Beagle dogs of body weights of 4.9-9.5 kg (4/sex/group) orally via capsules at 0, 5, 20 or 100 mg/kg for 13 consecutive weeks. Plasma levels of LUM001 (free form) were evaluated on Days 1 and 91. LUM001 was administered by once daily oral gelatin capsules. […] therefore, 105% of a stated dose is given to provide the appropriate amount of compound for dosing. On study Day 1 and Day 91, approximately 2 mL of venous blood was collected in heparinized tubes from the cephalic vein of each animal at 1, 2, 3, 5, 8, and 24 hours post-dose. Blood collection tubes were mixed and placed on ice during the collection period after which they were centrifuged and the plasma was harvested into cryotubes within approximately 60 minutes of blood collection. Plasma samples were stored at approximately −70° C. or lower until analyzed.
# The concentration of LUM001 free form in plasma were determined using an LC/MS/MS method. The assay sensitivity was 5.00 ng/mL for a 100 mL sample.
# [5] = test system: Hepatic HMG-CoA Reductase; assay: Hepatic HMG-CoA reductase activity assay, hamster liver microsomes; type: in vivo, golden Syrian hamster; conditions: 28 days
# Source text: Male golden Syrian hamsters (126-147 gm) were obtained from Charles Rivers Laboratories and were single housed in a constant temperature environment with alternating 12-hour light and dark cycles. Hamsters were fed Teklad 7001 rodent meal chow at libitum for two weeks before the experimental studies began and switched to Teklad 7001 rodent meal chow supplemented with 0.24% cholesterol on day one of the 28-day experiment. Water was continuously available to the animals. Hamsters were assigned to groups in a manner that normalized each group by pretreatment body weights. SD-5613 was dissolved in an aqueous solution of 0.2% (w/v) Tween 80 and administered Q.D. by intragastric gavage between 9 a.m. and 10 a.m. each morning using a syringe fitted with a flexible feeding tube. Blood samples were collected after 14- and 28-day treatment periods by orbital sinus and cardiac puncture, respectively. Hamsters were anesthetized but not fasted prior to blood collections. Fecal samples were collected during a 48-hour period at the end of days 14 and 28 (i.e. days 13-14 and 27-28). Hamsters were sacrificed using carbon dioxide asphyxiation to obtain the following tissue samples: liver, kidneys, colon and cecum.
# Homogenates of three gram liver tissue samples were prepared in 25 ml homogenization buffer [0.1 M potassium phosphate buffer, pH 7.2, containing 0.1 M sucrose, 50 mM KCl, 50 mM NaF, 5 mM ethylene glycol-bis(β-aminoethyl ether)-N,N,N′,N′-tetraacetic acid (EGTA), 1 mM EDTA, 3 mM dithiothreitol (DTIT), and 1 mM phenylmethylsulfonyl fluoride (PMSF)]. A microsomal fraction was prepared by centrifugation at 10,000×g for ten minutes. The supernatant was subjected to centrifugation at 105,000×g for two hours. The microsomal fraction was resuspended in a 0.1 M Na tetrapyrophosphate buffer (pH 10), with 50 mM NaF, and 1 mM EDTA, and subjected to centrifugation for one hour at 105,000×g. The microsomal fraction was resuspended in the homogenization buffer, and assayed for protein content by Coomassie Protein Plus Assay reagent.
# Microsomes (200 μg) were preincubated for 15 minutes at 37° C. in a total volume of 225 μl buffer containing 0.1 M potassium phosphate (pH 7.4), 10 mM imidazole, 5 mM DTT, 10 mM EDTA, 3 mM NADP, 12 mM glucose-6-phosphate and 1 unit glucose-6-phosphate dehydrogenase (catalog number G4134, Sigma, St. Louis). The HMG-CoA reductase assay was initiated by the addition of 9 nmoles (0.5 μCi). DL-[-3^14C]-HMG-CoA (final assay volume was DL-3-[^14C]-250 μl). The mixture was incubated for 60 minutes at 37° C. after which the assay was stopped with 25 μl of 6 N HCl. [^3H]Mevalonic acid (0.1 μCi), used as an internal standard to correct for incomplete recovery, was added to the reaction mixture along with 3 mg of unlabeled mevalonic acid lactone. The mixture was then incubated for an additional 30 minutes at 37° C. The [^14C]mevalonate that was formed and converted into mevalonic acid lactone during both incubations was isolated by thin layer chromatography. Each lane was scraped into 3 ml of InstaGel XF (Packard, Meriden, Conn.) and read on a Beckman Scintillator Counter. Reagents unless noted otherwise were obtained from Sigma, St. Louis, Mo. Isotopes were obtained from NEN Life Science Products, Boston, Mass.
compound,measurement,setting,value
CCCCC1(CCCC)CS(=O)(=O)c2ccc(N(C)C)cc2[C@@H](c2ccc(OCc3ccc(C[N+]45CCN(CC4)CC5)cc3)cc2)[C@H]1O [LUM001],inhibition of postprandial serum bile acids AUC compared to cholestyramine,"serum bile acids [1]; cholestyramine 200 or 500 mg/kg, AUC 0-240 min",superior inhibition
same,effect on serum bile acids,serum bile acids [1]; single oral doses 0.02-15 mg/kg,significantly decreased
same,decrease in fasting serum bile acid level vs placebo,serum bile acids [2],24%
same,decrease in post-prandial peak serum bile acid level vs placebo,serum bile acids [2],23%
same,AUC(0-t),[3],4320 ng·h/mL
same,Cmax,"[4]; Day 1, Comb",25.1 ng/mL
same,Cmax,"[4]; Day 91, F",25.0 ng/mL
same,Hepatic HMG-CoA Reductase,[5]; 5 mg/kg/day,4.6 ± 0.4 pmol/mg-protein/min
same,"Hepatic HMG-CoA Reductase, % change from vehicle group",[5]; 5 mg/kg/day,(+31) %
same,Hepatic HMG-CoA Reductase,[5]; 15 mg/kg/day,16 ± 4 pmol/mg-protein/min
same,"Hepatic HMG-CoA Reductase, % change from vehicle group",[5]; 15 mg/kg/day,(+346) %
same,Hepatic HMG-CoA Reductase,[5]; 50 mg/kg/day,17 ± 4 pmol/mg-protein/min
same,"Hepatic HMG-CoA Reductase, % change from vehicle group",[5]; 50 mg/kg/day,(+389) %
